Assay results as given in patent publication US10004701B2, “Methods and compositions for treating infection” (UNIVERSITY OF ROCHESTER, priority 2012, dated 2018).
Structures can show the parent of a compound that is named as a salt. Where two headings read alike, the source gives them in different places.

Assays:
Assay in all cases: AK assay 384-well format, Prestwick library screening
[1] = system: E. cloacae; type: cell-based, Enterobacter cloacae; details: 50 μM final drug concentration; for fold induction at 50 µM: Enterobacter cloacae, 3 h
[2] = system: A. baumannii strain 98-37-09; type: cell-based, Acinetobacter baumannii; details: 50 μM final drug concentration; for fold induction at 50 µM: Acinetobacter baumannii, 983709, 3 h
[3] = system: K. pneumoniae; type: cell-based, Klebsiella pneumoniae; details: 50 μM final drug concentration; for fold induction at 50 µM: Klebsiella pneumoniae, 3 h
[4] = system: S. aureus strain USA300-0114; type: cell-based, Staphylococcus aureus; details: 50 μM final drug concentration; for fold induction at 50 µM: Staphylococcus aureus, USA300, 3 h
[5] = system: P. aeruginosa; type: cell-based, Pseudomonas aeruginosa; details: 50 μM final drug concentration; for fold induction at 50 µM: Pseudomonas aeruginosa, 3 h
[6] = system: E. coli; type: cell-based, Escherichia coli; details: 50 μM final drug concentration; for fold induction at 50 µM: Escherichia coli, 3 h
[7] = system: E. faecium; type: cell-based, Enterococcus faecium; details: 50 μM final drug concentration; for fold induction at 50 µM: Enterococcus faecium, 3 h
[8] = cutoff for positive-scoring molecules 3-fold increase
[9] = planktonic E. cloacae, 384-well, cutoff for positive-scoring molecules 3-fold increase, read-out: AK-based Prestwick Library Screening Results: E. cloacae (increase in extracellular AK activity)
[10] = planktonic A. baumannii, 384-well, cutoff for positive-scoring molecules 3-fold increase, read-out: AK-based Prestwick Library Screening Results: A. baumannii (increase in extracellular AK activity)
[11] = planktonic K. pneumoniae, 384-well, cutoff for positive-scoring molecules 3-fold increase, read-out: AK-based Prestwick Library Screening Results: K. pneumoniae (increase in extracellular AK activity)
[12] = planktonic S. aureus, 384-well, cutoff for positive-scoring molecules 3-fold increase, read-out: AK-based Prestwick Library Screening Results: S. aureus (increase in extracellular AK activity)
[13] = planktonic P. aeruginosa, 384-well, cutoff for positive-scoring molecules 3-fold increase, read-out: AK-based Prestwick Library Screening Results: P. aeruginosa (increase in extracellular AK activity)
[14] = planktonic E. coli, 384-well, cutoff for positive-scoring molecules 3-fold increase, read-out: AK-based Prestwick Library Screening Results: E. coli (increase in extracellular AK activity)
[15] = planktonic E. faecium, 384-well, cutoff for positive-scoring molecules 3-fold increase, read-out: AK-based Prestwick Library Screening Results: E. faecium (increase in extracellular AK activity)
[16] = planktonic E. cloacae, positive cutoff 3-fold increase, read-out: AK-based Prestwick library screening result, E. cloacae (fold increase in extracellular AK activity)
[17] = planktonic A. baumannii, positive cutoff 3-fold increase, read-out: AK-based Prestwick library screening result, A. baumannii (fold increase in extracellular AK activity)
[18] = planktonic K. pneumoniae, positive cutoff 3-fold increase, read-out: AK-based Prestwick library screening result, K. pneumoniae (fold increase in extracellular AK activity)
[19] = planktonic S. aureus, positive cutoff 3-fold increase, read-out: AK-based Prestwick library screening result, S. aureus (fold increase in extracellular AK activity)
[20] = planktonic P. aeruginosa, positive cutoff 3-fold increase, read-out: AK-based Prestwick library screening result, P. aeruginosa (fold increase in extracellular AK activity)
[21] = planktonic E. coli, positive cutoff 3-fold increase, read-out: AK-based Prestwick library screening result, E. coli (fold increase in extracellular AK activity)
[22] = planktonic E. faecium, positive cutoff 3-fold increase, read-out: AK-based Prestwick library screening result, E. faecium (fold increase in extracellular AK activity)

CC(C)NC[C@@H](O)COc1ccc(CC(N)=O)cc1 [(R)-(+)-Atenolol]
AK-based Prestwick Library Screening Results, E. cloacae (fold increase in extracellular AK activity) [1, 8]: 1.3
AK-based Prestwick Library Screening Results, A. baumannii (fold increase in extracellular AK activity) [2, 8]: 1.3
AK-based Prestwick Library Screening Results, K. pneumoniae (fold increase in extracellular AK activity) [3, 8]: 1.2
AK-based Prestwick Library Screening Results, S. aureus (fold increase in extracellular AK activity) [4, 8]: 1.2
AK-based Prestwick Library Screening Results, P. aeruginosa (fold increase in extracellular AK activity) [5, 8]: 1.2
AK-based Prestwick Library Screening Results, E. coli (fold increase in extracellular AK activity) [6, 8]: 1.3
AK-based Prestwick Library Screening Results, E. faecium (fold increase in extracellular AK activity) [7, 8]: 1.0

CN[C@@H]1[C@H](O[C@H]2[C@H](O[C@H]3[C@H](O)[C@@H](O)[C@H](NC(=N)N)[C@@H](O)[C@@H]3NC(=N)N)O[C@@H](C)[C@]2(O)CO)O[C@@H](CO)[C@H](O)[C@H]1O [Dihydrostreptomycin sulfate]
fold induction at 50 µM [1, 9]: 1.3
fold induction at 50 µM [2, 10]: 1.2
fold induction at 50 µM [3, 11]: 0.7
fold induction at 50 µM [4, 12]: 1.2
fold induction at 50 µM [5, 13]: 0.9
fold induction at 50 µM [6, 14]: 1.2
fold induction at 50 µM [7, 15]: 1

CCC[C@H](N[C@@H](C)C(=O)N1[C@H](C(=O)O)C[C@@H]2CCCC[C@@H]21)C(=O)OCC [Perindopril]
fold induction at 50 µM [1, 16]: 1.3
fold induction at 50 µM [2, 17]: 1.4
fold induction at 50 µM [3, 18]: 1.1
fold induction at 50 µM [4, 19]: 1.1
fold induction at 50 µM [5, 20]: 1.2
fold induction at 50 µM [6, 21]: 1.2
fold induction at 50 µM [7, 22]: 1

CC1(C)S[C@@H]2[C@H](NC(=O)Cc3ccccc3)C(=O)N2[C@H]1C(=O)O.CC1(C)S[C@@H]2[C@H](NC(=O)Cc3ccccc3)C(=O)N2[C@H]1C(=O)O.c1ccc(CNCCNCc2ccccc2)cc1 [Benzathine benzylpenicillin]
AK-based Prestwick library screening result, E. cloacae (fold increase in extracellular AK activity) ([1]; planktonic E. cloacae, positive cutoff 3-fold increase): 1.6
AK-based Prestwick library screening result, A. baumannii (fold increase in extracellular AK activity) ([2]; planktonic A. baumannii, positive cutoff 3-fold increase): 5.9
AK-based Prestwick library screening result, K. pneumoniae (fold increase in extracellular AK activity) ([3]; planktonic K. pneumoniae, positive cutoff 3-fold increase): 1.0
AK-based Prestwick library screening result, S. aureus (fold increase in extracellular AK activity) ([4]; planktonic S. aureus, positive cutoff 3-fold increase): 1.0
AK-based Prestwick library screening result, P. aeruginosa (fold increase in extracellular AK activity) ([5]; planktonic P. aeruginosa, positive cutoff 3-fold increase): 1.1
AK-based Prestwick library screening result, E. coli (fold increase in extracellular AK activity) ([6]; planktonic E. coli, positive cutoff 3-fold increase): 15.6
AK-based Prestwick library screening result, E. faecium (fold increase in extracellular AK activity) ([7]; planktonic E. faecium, positive cutoff 3-fold increase): 1.6

Cc1[nH]c(=O)c(C#N)cc1-c1ccncc1 [Milrinone]
fold induction at 50 µM [1, 16]: 0.9
fold induction at 50 µM [2, 17]: 0.8
fold induction at 50 µM [3, 18]: 0.8
fold induction at 50 µM [4, 19]: 0.7
fold induction at 50 µM [5, 20]: 0.9
fold induction at 50 µM [6, 21]: 0.8
fold induction at 50 µM [7, 22]: 0.9

O=c1[nH]c2ccccc2n1C1CCN(CCCC(c2ccc(F)cc2)c2ccc(F)cc2)CC1 [Pimozide]
fold induction at 50 µM [1, 9]: 1.2
fold induction at 50 µM [2, 10]: 8.7
fold induction at 50 µM [3, 11]: 1.3
fold induction at 50 µM [4, 12]: 2.3
fold induction at 50 µM [5, 13]: 1.3
fold induction at 50 µM [6, 14]: 1.7
fold induction at 50 µM [7, 15]: 1.3

C[C@H](N)[C@H](O)c1ccc(O)c(O)c1 [Levonordefrin]
fold induction at 50 µM ([1]; planktonic, […], read-out: AK-based Prestwick Library Screening Results, E. cloacae (fold increase in extracellular AK activity)): 0.7
fold induction at 50 µM ([2]; planktonic, […], read-out: AK-based Prestwick Library Screening Results, A. baumannii (fold increase in extracellular AK activity)): 0.8
fold induction at 50 µM ([3]; planktonic, […], read-out: AK-based Prestwick Library Screening Results, K. pneumoniae (fold increase in extracellular AK activity)): 0.8
fold induction at 50 µM ([4]; planktonic, […], read-out: AK-based Prestwick Library Screening Results, S. aureus (fold increase in extracellular AK activity)): 0.6
fold induction at 50 µM ([5]; planktonic, […], read-out: AK-based Prestwick Library Screening Results, P. aeruginosa (fold increase in extracellular AK activity)): 0.7
fold induction at 50 µM ([6]; planktonic, […], read-out: AK-based Prestwick Library Screening Results, E. coli (fold increase in extracellular AK activity)): 0.7
fold induction at 50 µM ([7]; planktonic, […], read-out: AK-based Prestwick Library Screening Results, E. faecium (fold increase in extracellular AK activity)): 1

c1coc(CNc2ncnc3nc[nH]c23)c1 [Compound 6-Furfurylaminopurine, 6-Furfurylaminopurine]
fold induction at 50 µM ([1]; planktonic, cutoff for positive-scoring molecules 3-fold increase, read-out: AK-based Prestwick Library Screening Results, E. cloacae (fold increase in extracellular AK activity)): 0.9
fold induction at 50 µM ([2]; planktonic, cutoff for positive-scoring molecules 3-fold increase, read-out: AK-based Prestwick Library Screening Results, A. baumannii (fold increase in extracellular AK activity)): 0.7
fold induction at 50 µM ([3]; planktonic, cutoff for positive-scoring molecules 3-fold increase, read-out: AK-based Prestwick Library Screening Results, K. pneumoniae (fold increase in extracellular AK activity)): 0.5
fold induction at 50 µM ([4]; planktonic, cutoff for positive-scoring molecules 3-fold increase, read-out: AK-based Prestwick Library Screening Results, S. aureus (fold increase in extracellular AK activity)): 0.6
fold induction at 50 µM ([5]; planktonic, cutoff for positive-scoring molecules 3-fold increase, read-out: AK-based Prestwick Library Screening Results, P. aeruginosa (fold increase in extracellular AK activity)): 0.7
fold induction at 50 µM ([6]; planktonic, cutoff for positive-scoring molecules 3-fold increase, read-out: AK-based Prestwick Library Screening Results, E. coli (fold increase in extracellular AK activity)): 0.7
fold induction at 50 µM ([7]; planktonic, cutoff for positive-scoring molecules 3-fold increase, read-out: AK-based Prestwick Library Screening Results, E. faecium (fold increase in extracellular AK activity)): 0.9

CCn1cc(C(=O)O)c(=O)c2cc(F)c(N3CCNCC3)cc21 [Norfloxacin]
fold induction at 50 µM [1, 9]: 3.1
fold induction at 50 µM [2, 10]: 3.1
fold induction at 50 µM [3, 11]: 0.8
fold induction at 50 µM [4, 12]: 1.8
fold induction at 50 µM [5, 13]: 31.3
fold induction at 50 µM [6, 14]: 33.1
fold induction at 50 µM [7, 15]: 1.5

CC(C)(CO)[C@@H](O)C(=O)NCCC(=O)O [calcium salt monohydrate]
fold induction at 50 µM ([1]; planktonic, cutoff for positive 3-fold increase, read-out: AK-based Prestwick Library Screening Results, E. cloacae (fold increase in extracellular AK activity)): 1.4
fold induction at 50 µM ([2]; planktonic, cutoff for positive 3-fold increase, read-out: AK-based Prestwick Library Screening Results, A. baumannii (fold increase in extracellular AK activity)): 1.1
fold induction at 50 µM ([3]; planktonic, cutoff for positive 3-fold increase, read-out: AK-based Prestwick Library Screening Results, K. pneumoniae (fold increase in extracellular AK activity)): 1
fold induction at 50 µM ([4]; planktonic, cutoff for positive 3-fold increase, read-out: AK-based Prestwick Library Screening Results, S. aureus (fold increase in extracellular AK activity)): 1.1
fold induction at 50 µM ([5]; planktonic, cutoff for positive 3-fold increase, read-out: AK-based Prestwick Library Screening Results, P. aeruginosa (fold increase in extracellular AK activity)): 1
fold induction at 50 µM ([6]; planktonic, cutoff for positive 3-fold increase, read-out: AK-based Prestwick Library Screening Results, E. coli (fold increase in extracellular AK activity)): 1.1
fold induction at 50 µM ([7]; planktonic, cutoff for positive 3-fold increase, read-out: AK-based Prestwick Library Screening Results, E. faecium (fold increase in extracellular AK activity)): 1.1
